Measurements published in US9694090B2, “Process for preparing hyperpolarized substrates and method for MRI” (priority 2010, dated 2017).

Key:
[1] = Glass formation of the DNP preparation upon rapid freezing in liquid nitrogen; assay type: physicochemical
Procedure: Butyric acid (11.7 mg, 0.13 mmol) was placed into an Eppendorf tube and mixed with 9.0 mg of a glycerol solution containing 39 mM of Radical 1. This preparation was 7 M with respect to butyric acid.
Butyric anhydride (40 μl, 0.24 mmol) was added to an Eppendorf tube and mixed with 1 mg of Radical 3 in a total concentration of 15 mM. This preparation was 6.5 M with respect to butyric anhydride (which, upon hydrolysis provides a 13 M concentration in butyric acid molecules).
Butyric acetic anhydride (36 μl, 0.28 mmol) was added to an Eppendorf tube and mixed with 0.85 mg of acid form of Radical 3 in a total concentration of 15 mM. This preparation was 7.5 M with respect to butyric acetic acid.
Li-acetoacetate (22.4 mg, 0.21 mmol) was added to an Eppendorf tube and mixed with 28 μl of a DMSO preparation (25 mM Radical 3 and 0.8 mM 3-Gd). This preparation was 4 M with respect to Li-acetoacetate.
To an Eppendorf tube was added diketene (9.6 mg, 0.11 mmol) and mixed with 4.7 mg of a DMSO preparation of Radical 3 (45 mM) and 3-Gd (1.5 mM). This preparation was 8.5 M with respect to diketene.
Ethyl acetoacetate (45 μl, 0.34 mmol) was added to an Eppendorf tube and mixed with acid form of Radical 2 (0.7 mg, 0.65 μmol) in a total concentration of 15 mM. This preparation was 8 M with respect to ethyl acetoacetate.
Cis-aconitic acid (18.6 mg, 0.11 mmol) was added to an Eppendorf tube and mixed with a 32.5 μl DMSO preparation (25 mM Radical 3 and 0.8 mM 3-Gd). This preparation was 2.5 M with respect to cis-aconitic acid.
Cis-aconitic anhydride (188 mg, 1.2 mmol) was added to an Eppendorf tube and mixed with 2.85 mg (2 μmol) of Radical 1 and 0.98 mg of a 83 μmol/g solution of 3-Gd. This preparation was 9 M with respect to cis-aconitic anhydride.
Succinic acid (42.1 mg, 0.35 mmol) was added to an Eppendorf tube and mixed and mixed with 92 mg of a DMSO preparation (20 mM Radical 3 and 0.8 mM 3-Gd). This preparation was 4 M with respect to succinic acid.
Succinic anhydride (21.5 mg, 0.21 mmol) was added to an Eppendorf tube and mixed with 21.8 mg of a DMSO solution of Radical 3 (30 mM) and of 3-Gd (1 mM). This preparation was 6 M with respect to succinic anhydride.
Succinic-(1)-ethyl ester (111 mg, 0.75 mmol) was added to an Eppendorf tube and mixed with the carboxylic acid form of Radical 2 (2.4 mg, 1.5 μmol) and 3-Gd (3.4 μl of a 14.5 mM solution in water). This preparation was 6 M with respect to succinic-(1)-ethyl ester.
(§1) L-Glutamine (50.9 mg, 0.35 mmol) was added to an Eppendorf tube and dissolved in 29 μl of 12 M NaOH and mixed with 1.7 mg of radical 1 and 3-Gd (2.3 μl of a 14.5 mM water stock solution). This preparation was 4 M with respect to L-glutamine.

[2] = Degradation / isomerisation of the substrate in DNP preparation and dissolution (NMR)
Procedure: The entire composition from example 2a was transferred from the Eppendorf tube to a sample cup and the sample cup was inserted into a DNP polariser. The composition was hyperpolarised under DNP conditions at 1.2 K in a 3.35 T magnetic field under irradiation with microwave (93.915 GHz). The sample was hyperpolarized for 75 min.
The sample was dissolved in 5 ml phosphate buffer pH 7.3 (40 mM+EDTA).
The solution was collected directly into a 10 mm NMR tube and transferred to a 14.1 T magnet where a 90 degree 1D 13C-NMR spectrum was recorded.
(§2) The sample was dissolved in 5 ml water with added NaOH (125 μl of 12 M). The solution was collected directly into a 10 mm NMR tube and transferred to a 14.1 T magnet (pH 13) where a time series of 64 five degree 1D 13C-NMR spectra were recorded with a total delay between the pulses of 3 s.
(§3) The sample was dissolved in 5 ml water with added NaOH (200 μl of 12 M). The solution was collected directly into a 10 mm NMR tube and transferred to a 14.1 T magnet (pH 12.8) where a time series of 5 degree 1D 13C-NMR spectra were recorded with a total delay between the pulses of 3 s.
The sample was dissolved in 5 ml 40 mM phosphate buffer pH 7.3+100 mg/l EDTA, thus resulting in an ester concentration of 20 mM. 1 ml of the ester solution was injected through a transfer line into a 10 mm NMR tube placed at 14.1 T and 37° C. The 10 mm NMR tube contained a 500 μl solution of approximately 270 U of a carboxylic-ester hydrolase from porcine liver. A time series of 10 degree 1D 13C-NMR spectra were recorded with a total delay between the pulses of 3 s.
The sample was dissolved in 5 ml phosphate buffer (40 mM, pH 7.3) with added 30 μl 12 M NaOH. […] The solution was collected directly into a 10 mm NMR tube and transferred to a 14.1 T magnet where a time series of 5 degree 1D 13C-NMR spectra were recorded with a total delay between the pulses of 3 s.
(§4) The sample was dissolved in 6 ml water with added NaOH (190 μl of 12 M). The solution was collected directly into a 10 mm NMR tube and transferred to a 14.1 T magnet (pH 12.8) where a time series of 64 five degree 1D 13C-NMR spectra were recorded with a total delay between the pulses of 3 s.
as §1
N-acetyl-L-glutamine (57.2 mg, 0.3 mmol) was added to an Eppendorf tube and dissolved in 25.3 μl of 12 M NaOH and mixed with 1.9 mg of radical 1 and 3-Gd (2.3 μl of a 14.5 mM water stock solution).

[3] = Hydrolysis of the DNP hyperpolarized precursor on dissolution with strong base, followed by 13C-NMR time series; assay type: physicochemical
Procedure: The composition from example 1b (25 mg, 0.16 mmol) was transferred from the Eppendorf tube to a sample cup and the sample cup was inserted into a DNP polariser. The composition was hyperpolarised under DNP conditions at 1.2 K in a 3.35 T magnetic field under irradiation with microwave (93.915 GHz). The sample was hyperpolarized for 75 min.
The sample was dissolved in 4 ml water with added NaOH (50 μl of 12M solution). The pH of the dissolved sample was 12. The solution was collected directly into a 10 mm NMR tube and transferred to a 14.1 T magnet where a time series of 5 degree 1D 13C-NMR spectra were recorded with a total delay between the pulses of 1 s.
The composition from example is (33 mg, 0.25 mmol) was transferred from the Eppendorf tube to a sample cup and the sample cup was inserted into a DNP polariser. The composition was hyperpolarised under DNP conditions at 1.2 K in a 3.35 T magnetic field under irradiation with microwave (93.915 GHz). The sample was hyperpolarized for 90 min.
The sample was dissolved in 5 ml water with added NaOH (125 μl of 12M). The solution was collected directly into a 10 mm NMR tube and transferred to a 14.1 […]) T magnet where a time series of 5 degree 1D 13C-NMR spectra were recorded with a total delay between the pulses of 1 s.
The entire composition from example 2b was transferred from the Eppendorf tube to a sample cup and the sample cup was inserted into a DNP polariser. The composition was hyperpolarised under DNP conditions at 1.2 K in a 3.35 T magnetic field under irradiation with microwave (93.915 GHz). The sample was hyperpolarized for 3 hours.
as §2
The composition from example is (20.5 mg, 0.16 mmol) was transferred from the Eppendorf tube to a sample cup and the sample cup was inserted into a DNP polariser. The composition was hyperpolarised under DNP conditions at 1.2 K in a 3.35 T magnetic field under irradiation with microwave (93.915 GHz). The sample was hyperpolarized for 2 hours.
as §3
The composition from example 2b was melted on a water-bath and stirred with a magnetic stirrer. 45 mg of this preparation (0.29 mmol) was transferred from the Eppendorf tube to a sample cup and the sample cup was inserted into a DNP polariser. The composition was hyperpolarised under DNP conditions at 1.2 K in a 3.35 T magnetic field under irradiation with microwave (93.915 GHz). The sample was hyperpolarized for 90 min.
as §4

[4] = T1 relaxation time in solution at 14.1 T; assay type: physicochemical; settings: for High field liquid state T1: 14.1 T magnet, phosphate buffer, pH 7.1-7.2; for T1 of the hydrolyzed product: 14.1 T and 37° C.
Procedure: The ester was only partly hydrolyzed.
The T1 of the hydrolyzed product, succinate is 33 s (14.1 T and 37° C.).
The sample was dissolved in 5 ml phosphate buffer (100 mM, pH 7) with added one equivalent HCl. The pH is 7.1 after dissolution.
The pH is 7.2 after dissolution.

[5] = with trityl radical, without addition of glass-forming agents
[6] = after 10 s, water with added NaOH, pH 12-13
[7] = mixed with DMSO preparation of Radical 3
[8] = dissolved in 12 M NaOH with radical 1
[9] = after 20 s, water with added NaOH, pH 12.9-13
[10] = after 15 s, strong base (NaOH or NaOD), pH 11-12.2

Structure (SMILES): CCCC(=O)O [Butyric acid, reference compound]
- Glass formation upon rapid freezing in liquid nitrogen ([1]; mixed with glycerol solution of Radical 1): formed a glass
- Glass formation upon rapid freezing [1, 5]: crystallizes

Structure (SMILES): O=C(O)CC1=CC(=O)OC1=O [Cis-aconitic anhydride, cis-Aconitic anhydride]
- Glass formation upon rapid freezing [1, 5]: formed a glass
- Presence of trans-aconitate ([2]; after DNP and hydrolysis with NaOH, pH 12.8): neglectable
- Precursor hydrolyzed [3, 6]: at least 95%

Structure (SMILES): O=C(O)CC(O)C(=O)O (centres unmarked) [Malic acid, reference compound]
- Glass formation upon rapid freezing in liquid nitrogen [1, 7]: formed a glass

Structure (SMILES): CCCC(=O)OC(=O)OCC [Butyric ethylcarbonic anhydride]
- Glass formation upon rapid freezing ([1]; absence of a glass forming additive, Example 1d (Prophetic)): forms a glass

Structure (SMILES): O=C(O)CCC(=O)O [Succinic acid, reference compound]
- Glass formation upon rapid freezing in liquid nitrogen [1, 7]: formed a glass

Structure (SMILES): CCCC(=O)OC(C)=O [Butyric acetic anhydride]
- Glass formation upon rapid freezing [1, 5]: formed a glass
- Precursor hydrolyzed [3, 6]: at least 95%

Structure (SMILES): [2H][13C]([2H])(N)C(=O)O [2-13C-d2-Glycine, reference compound]
- Glass formation upon rapid freezing in liquid nitrogen [1, 8]: forms a glass
- High field liquid state T1 [4]: 46 s

Structure (SMILES): CCOC(=O)C1CSC(=O)N1 (centres unmarked) [Ethyl OTZ, 2-Oxothiazolidine-4-carboxylic ethyl ester]
- Precursor hydrolyzed ([3]; in less than 10 s, water with added NaOH, pH 11-12.6): at least 95%

Structure (SMILES): NC(=O)CC[C@H](N)C(=O)O [L-Glutamine, reference compound]
- Glass formation upon rapid freezing in liquid nitrogen [1, 8]: formed a glass
- Amount of degradation in the DNP preparation ([2]; 4 M): 14%

Structure (SMILES): CCCC(=O)OC(=O)CCC [Butyric anhydride]
- Glass formation upon rapid freezing [1, 5]: formed a glass
- Precursor hydrolyzed [3, 6]: at least 95%

Structure (SMILES): O=C1CCC(=O)O1 [Succinic anhydride]
- Glass formation upon rapid freezing in liquid nitrogen [1, 7]: formed a glass
- Precursor hydrolyzed [3, 6]: at least 95%

Structure (SMILES): CCOC(=O)C(O)CC(=O)O (centres unmarked) [Malic-(1)-ethyl ester]
- Glass formation upon rapid freezing [1, 5]: formed a glass
- Precursor hydrolyzed [3, 9]: at least 95%

Structure (SMILES): CCOC(=O)C(N)Cc1ccccc1 (centres unmarked) [Ethyl phenylalanine]
- Glass formation upon rapid freezing [1, 5]: formed a glass
- Precursor hydrolyzed [3, 10]: at least 95%

Structure (SMILES): CC(=O)CC(=O)[O-].[Li+] [Li-acetoacetate, reference compound]
- Glass formation upon rapid freezing in liquid nitrogen [1, 7]: formed a glass
- Amount of degradation (decarboxylation) ([2]; 1H NMR on DNP sample following dissolution in phosphate buffer pH 7.3): 40%

Structure (SMILES): O=C(O)/C=C(/CC(=O)O)C(=O)O [Cis-aconitic acid, reference compound]
- Glass formation upon rapid freezing in liquid nitrogen [1, 7]: formed a glass
- Amount of trans isomer of aconitate ([2]; after DNP and dissolution in phosphate buffer with NaOH, pH 7.2): about 10%

Structure (SMILES): O=C(O)/C=C(/CC(=O)O)C(=O)O [cis-aconitate]
- T1 of the hydrolyzed product [4]: 24 s

Structure (SMILES): O=C(O)CCC(=O)O [succinate]
- T1 of the hydrolyzed product [4]: 33 s

Structure (SMILES): N[C@@H](Cc1ccccc1)C(=O)O [L-Phenylalanine, reference compound]
- Glass formation upon rapid freezing in liquid nitrogen [1, 8]: formed a glass

Structure (SMILES): CCOC(=O)C(=O)CCC(=O)O [2-oxoglutaric-(1)-ethyl ester]
- Glass formation upon rapid freezing [1, 5]: formed a glass
- Precursor hydrolyzed [3, 10]: at least 95%

Structure (SMILES): [2H][13C]([2H])(NC(C)=O)C(=O)O [2-13C-d2-N-acetyl glycine]
- Glass formation upon rapid freezing in liquid nitrogen [1, 8]: formed a glass
- High field liquid state T1 [4]: 40 s

Structure (SMILES): C=C1CC(=O)O1 [diketene, 4-Methylideneoxetan-2-one]
- Glass formation upon rapid freezing in liquid nitrogen [1, 7]: formed a glass
- Precursor hydrolyzed [3, 6]: at least 95%

Structure (SMILES): CCOC(=O)CCC(=O)O [Succinic-(1)-ethyl ester]
- Glass formation upon rapid freezing [1, 5]: formed a glass
- Precursor hydrolyzed [3, 9]: at least 95%
